Results published in US20210308196A1, “COMPOSITIONS AND METHODS TO PROMOTE HOST DEFENSE AND STIMULATE, EXPAND, AND/OR RESET T CELL REPERTOIRES” (EVOLVE BIOSYSTEMS, INC., priority 2018, published 2021).

How the values were obtained:
Assay type in all cases: in vivo, human
[1] = Immune development in C-section infants; settings: baseline to three months
Description: Approximately 25 mother-infant dyads are recruited to provide a cord blood sample and two infant blood samples, one on day 0-4 and another at 3 months old (between 84 and 104). Markers of immune function will be analysed and compared to the development of the gut microbiome.
The study design is described in FIG. 16. The change in levels of immune cells and markers from baseline (Day 0-Day 4) to three months (Day 84-Day 104) will be measured. The correlation between gut microbiota composition and abundance and levels of immune cells and markers may also be measured. The differences between B. infantis and placebo supplementation on levels of immune cells and markers in breast-fed infants.
The differences between B. infantis and placebo supplementation on vaccine response (antibody titers). Blood samples are collected at baseline and month-three postpartum for evaluation of peripheral blood mononuclear cell characterization (including regulatory T cells) and vaccine response.

infant gut microbiome = assay: Infant fecal microbiome analysis (16S rDNA sequencing, B. infantis qPCR)
Description: Infant fecal samples were collected throughout the 60-day trial. Mothers collected their own fecal and breastmilk samples as well as fecal samples from their infants. They filled out weekly, biweekly and monthly health and diet questionnaires, as well as daily logs about their infant feeding and gastrointestinal tolerability (GI). Safety and tolerability were determined from maternal reports of infants' feeding, stooling frequency, and consistency (using a modified Amsterdam infant stool scale—watery, soft, formed, hard; Bekkali et al. 2009), as well as GI symptoms and health outcomes. Individual fecal samples were subjected to full microbiome analysis using Illumina sequencing based on 16S rDNA and qPCR with primers designed specifically for B. longum subsp. infantis strain.
Evaluation of EVC001 colonization. As previously described in Frese et al. (2017) (mSphere 2(6): e00501-00517) colonization is measured at baseline and post-feeding by quantitative PCR using specific primers for B. infantis. Colonization is considered when B. infantis abundance is greater than 10^5, but more preferably greater than 10^7 or 10^8 CFU/ug DNA. Colonization may also be described as a significant expansion of the total relative contribution of Bifidobacteriaceae to the infant gut microbiome.
Bacterial DNA Methods. The relative abundance of the stool bacteria at the phylum, class, order, family, and genus level was characterized by performing a sequence analysis of the V4 segment of the 16S rRNA gene using QIIME v1.9.1.

[2] = Prevention and/or treatment of severe acute malnutrition (SAM) in infants; settings: 28 days
[3] = infant feces, Day 6 (Baseline), before supplementation starts on Day 7

Bifidobacterium longum subsp. infantis EVC001 [B. infantis EVC001]
Inflammation [1]: reduced | Th17 and IL-17 level [1]: decreased | Tregs [1]: increased | Levels of proteobacteria and enterococci (infant gut microbiome; colonized infants versus unsupplemented): much lower levels | B. infantis colonization level of infant gut (infant gut microbiome; continued after supplementation ended (Day 28) while breast milk consumed): higher than 10^10 cfu/g feces | Bacteroidaceae % Relative Abundance (infant gut microbiome; [3]): 0.1040% | Bifidobacteriaceae % Relative Abundance (infant gut microbiome; [3]): 0.1472% | Clostridiaceae % Relative Abundance (infant gut microbiome; [3]): 0.0874% | Enterobacteriaceae % Relative Abundance (infant gut microbiome; [3]): 0.2743% | Enterococcaceae % Relative Abundance (infant gut microbiome; [3]): 0.0539% | Lachnospiraceae % Relative Abundance (infant gut microbiome; [3]): 0.0197% | Other families % Relative Abundance (infant gut microbiome; [3]): 0.1357% | Staphylococcaceae % Relative Abundance (infant gut microbiome; [3]): 0.0543% | Streptococcaceae % Relative Abundance (infant gut microbiome; [3]): 0.1169% | Veillonellaceae % Relative Abundance (infant gut microbiome; [3]): 0.0065% | Bifidobacteriaceae % Relative Abundance (infant gut microbiome; infant feces, Day 40): significantly higher | Enterococcaceae % Relative Abundance (infant gut microbiome; infant feces, Day 40): 0.0045% | Lachnospiraceae % Relative Abundance (infant gut microbiome; infant feces, Day 40): 0.0072% | Other families % Relative Abundance (infant gut microbiome; infant feces, Day 40): 0.0215% | Staphylococcaceae % Relative Abundance (infant gut microbiome; infant feces, Day 40): 0.0036% | Streptococcaceae % Relative Abundance (infant gut microbiome; infant feces, Day 40): 0.0291% | Veillonellaceae % Relative Abundance (infant gut microbiome; infant feces, Day 40): 0.0077% | Bifidobacteriaceae % Relative Abundance (infant gut microbiome; infant feces, Day 40, listed as EVC001): 0.8712% | Enterobacteriaceae % Relative Abundance (infant gut microbiome; infant feces, Day 60): 0.0427% | Enterococcaceae % Relative Abundance (infant gut microbiome; infant feces, Day 60): 0.0082% | Lachnospiraceae % Relative Abundance (infant gut microbiome; infant feces, Day 60): 0.0081% | Other families % Relative Abundance (infant gut microbiome; infant feces, Day 60): 0.02443% | Staphylococcaceae % Relative Abundance (infant gut microbiome; infant feces, Day 60): 0.0039% | Streptococcaceae % Relative Abundance (infant gut microbiome; infant feces, Day 60): 0.0277% | Veillonellaceae % Relative Abundance (infant gut microbiome; infant feces, Day 60): 0.0076% | Gut microbiome share of B. longum subsp. infantis (infant gut microbiome; supplemented infants, on average, regardless of birthing mode): greater than 70% | Incidence of symptoms of acute malnutrition [2]: lower | TReg cells [2]: expansion | Weight gain [2]: better | B cell and plasma cell profiles, vaccine responses ([2]; children with SAM / hospitalized infants): improved
